Activity calls are given as the source filed them. No rule for the calls is given here. Where only a bound is given, the exact number is not on record here.

This experiment has as its system B cell line, CD40 signaling inhibition reporter. Put plainly: inhibitors of CD40 signaling, dose response, B cell lineage (AID 1259332).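 Also: cells stimulated with CD40 ligand tCD40L.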
For the molecule `O=[N+]([O-])c1ccc(N2CCOCC2)c2c1no[n+]2[O-]`, the concentration at half-maximal activity (AC50) is 1.76 µM.
The result for `N#C[C@@H]1[C@H](c2ccc(C#CC3CCCCC3)cc2)[C@H](CO)N1C(=O)Nc1ccc(F)cc1` reads > 20 µM (inactive); that for `O=C(c1ccc(F)cc1)N1C[C@@H]2N[C@H](C1)C2c1ccc(/C=C/c2ccccc2)cc1` (stereo partly drawn), 4.68 µM; that for `C[C@@H]1CN([C@@H](C)CO)C(=O)c2c(c3ccccc3n2C)-c2ccccc2CO[C@@H]1CN(C)C(=O)Nc1ccccc1C(F)(F)F`, 9.94 µM.
The result for `COc1cc(C(=O)CCN2CCC(c3ccccc3)C2)cc(OC)c1OC` (stereo not drawn) reads 5.51 µM; that for `C[C@H]1CN([C@@H](C)CO)C(=O)c2c(c3ccccc3n2C)-c2ccccc2CO[C@@H]1CN(C)C(=O)Nc1cccc(C(F)(F)F)c1`, 11.1 µM.
Regarding `N#C[C@@H]1[C@@H](c2ccc(C#CC3CCCCC3)cc2)[C@H](CO)N1C(=O)Nc1ccc(F)cc1`, the AC50 is 6.51 µM.
In the case of `CN1C(=O)c2cc(NC(=O)c3cccc(Cl)c3)ccc2OC[C@@H]2O[C@@H](CC(=O)NC3CCCCC3)CC[C@H]21`, the AC50 was > 20 µM (inactive).
The same measure for `O=C(Nc1ccc(C(F)(F)F)cc1)N1C[C@@H]2N[C@H](C1)C2c1ccc(-c2ccccc2)cc1` (stereo partly drawn): 7.26 µM; for `C=C1C(=O)C23C(O)C1CCC2C12CCCC(C)(COC(C)=O)C1C(O)C3(O)OC2` (stereo not drawn): 0.567 µM; for `COc1ccc(CC2C(=O)NC(C)C(=O)N(C)C3Cc4ccc(cc4)Oc4cc(ccc4O)CC(C(=O)NC(C)C(=O)NC(C)C(=O)N2C)N(C)C3=O)cc1` (stereo not drawn): 0.00631 µM.
The result for `C[C@H]1CN([C@@H](C)CO)C(=O)c2ccccc2-c2ccccc2CO[C@@H]1CN(C)Cc1ccccc1C(F)(F)F` reads 7.28 µM; that for `CC1Cc2ccccc2N1c1ncnc(N)c1[N+](=O)[O-]` (stereo not drawn), 7.92 µM.
The result for `COc1ccc(C[C@H]2NC[C@H](O)[C@H]2OC(C)=O)cc1` reads 0.0235 µM; that for `CC[C@@]1(O)C(=O)OCc2c1cc1n(c2=O)Cc2cc3cc(O)ccc3nc2-1`, 1.33 µM.
Take `Fc1ccccc1CNCCC(Cc1ccccc1)c1ccc2c(c1)OCO2` (stereo not drawn): the half-maximal activity concentration (AC50) was 5.98 µM.
The same measure for `N#C[C@H]1[C@H](c2ccc(C#Cc3ccccc3F)cc2)[C@@H](CO)N1C(=O)c1cccnc1`: 2.93 µM; for `O=C(C[C@@H]1CC[C@@H]2[C@H](COC[C@H](O)CN2Cc2cc(F)ccc2F)O1)NCc1ccc(Oc2ccccc2)cc1`: 6.77 µM; for `CC(C)(C)NCC(=Cc1ccccc1)C(=O)c1ccccc1`: 7.22 µM.
Turning to `CC(=O)OC1CCC2(C)C(CCC3C4CC=C(C(C)=O)C4(C)OC(=O)CC32)C1` (stereo not drawn), the AC50 was 2.3 µM.
As for `CC(=O)OCC12CC(OC(=O)CC(C)C)C(C)=CC1OC1C(O)C(OC(C)=O)C2(C)C12CO2` (stereo not drawn), the concentration at half-maximal activity (AC50) is 2.74 µM.
The result for `COc1ccc(S(=O)(=O)N(C)C[C@H]2Oc3ccc(NC(=O)Nc4ccc(C(F)(F)F)cc4)cc3C(=O)N([C@H](C)CO)C[C@H]2C)cc1` reads 10.5 µM.
The same measure for `COC(=O)c1ccc2nc(NC(=O)C(C)(C)C)sc2c1`: 1.9 µM; for `COc1cc2cc(C(=O)N3CC(COS(C)(=O)=O)c4ccc(O)cc43)[nH]c2c(OC)c1OC` (stereo not drawn): 0.00741 µM.
With `CCN(CC)CCCNc1nc2ccccc2c2[nH]c3ccc(OC)cc3c12`, the AC50 was 1.1 µM.
Take `C[C@H]1O[C@@H](O[C@H]2[C@@H](O)C[C@H](O[C@H]3[C@@H](O)C[C@H](O[C@H]4CC[C@]5(C)C6CC[C@]7(C)[C@@H](C8=CC(=O)OC8)CC[C@]7(O)C6CC[C@@H]5C4)O[C@@H]3C)O[C@@H]2C)C[C@H](O)[C@@H]1O` (stereo partly drawn): the concentration at half-maximal activity (AC50) was 0.929 µM.
On to `C[C@@H]1CN([C@H](C)CO)C(=O)c2c(c3ccccc3n2C)-c2ccccc2CO[C@H]1CN(C)C(=O)Nc1cccc(Cl)c1Cl`, for which the half-maximal activity concentration (AC50) is 7.74 µM.
The result for `COc1ccccc1NC(c1cccnc1)c1ccc2cccnc2c1O` (stereo not drawn) reads 8.25 µM.
For the molecule `O=C1NC2C(=CC(O)C(O)C2O)c2cc3c(c(O)c21)OCO3` (stereo not drawn), the half-maximal activity concentration (AC50) is 0.0711 µM.
For `Cc1ccccc1C(=O)N1CCC(C(=O)Nc2nc3ccc(F)cc3s2)CC1`, the half-maximal activity concentration (AC50) is 8.19 µM.
The result for `CCCCCN1C=CC(=C2C(=O)c3ccccc3C2=O)C=C1` reads 0.127 µM.
As to `COc1cc(C(C)C)c2c(c1)S(=O)(=O)N(COc1cc(=O)n3cccc(OCCN4CCCCC4)c3n1)C2=O`, the concentration at half-maximal activity (AC50) is 2.64 µM.
Consider `CC1OC(OC2CC(O)C3(CO)C4C(O)CC5(C)C(C6=CC(=O)OC6)CCC5(O)C4CCC3(O)C2)C(O)C(O)C1O` (stereo not drawn), for which the AC50 is 0.405 µM.
The same measure for `C[C@@H]1CN([C@H](C)CO)C(=O)c2ccccc2-c2ccccc2CO[C@@H]1CN(C)C(=O)c1cc(Cl)cc(Cl)c1`: 7.99 µM; for `c1ccc(-c2ccc(-c3ccccn3)nn2)nc1`: 7.89 µM; for `C[C@H]1CN([C@@H](C)CO)C(=O)c2ccccc2-c2ccccc2CO[C@H]1CN(C)C(=O)[C@@H](Cc1ccccc1)N(C)C`: > 20 µM (inactive).
For the molecule `COC(=O)c1nn(-c2ccc(-c3ccccc3)cc2)cc1O`, the AC50 was 8.42 µM.
With `CN(C)c1ccc(C(=C2C=CC(=[N+](C)C)C=C2)c2ccc(N(C)C)cc2)cc1`, the concentration at half-maximal activity (AC50) is 0.105 µM.
The result for `C[C@@H]1CN([C@@H](C)CO)C(=O)c2c(c3ccccc3n2C)-c2ccccc2CO[C@H]1CN(C)C(=O)Nc1ccccc1C(F)(F)F` reads 9.28 µM.
The result for `COc1ccc(C#Cc2ccc([C@H]3[C@H]4CN(C(=O)c5ccncc5)CCCCN4[C@H]3CO)cc2)cc1` reads 11.2 µM; that for `O=c1cc(-c2ccc(O)cc2)oc2ccc3ccccc3c12`, 2.2 µM.
The same measure for `O=C(Nc1ccc2c(c1)OCCO2)C1CCCC1`: 5.46 µM; for `CCC(=O)O[C@]1(C(=O)CCl)[C@@H](C)C[C@H]2[C@@H]3CCC4=CC(=O)C=C[C@]4(C)[C@@]3(F)[C@@H](O)C[C@@]21C`: > 20 µM (inactive); for `O=C1/C(=C/c2ccccc2)C[C@@]2(O)C3Cc4ccc(O)c5c4[C@@]2(CCN3CC2CC2)[C@H]1O5`: 1.75 µM.
With `COc1ccc(-c2ccc([C@H]3[C@@H](C#N)N(C(=O)c4cccc(F)c4)[C@H]3CO)cc2)cc1`, the AC50 is > 22 µM (inactive).
The same measure for `CC1CC(C)C(=O)C(C(CC2CC(=O)NC(=O)C2)OC(=O)CC(=O)c2ccccc2)C1` (stereo not drawn): 3.18 µM.
The same measure for `CC(=O)NC12CC3CC(C1)CC(C(=O)OCC(=O)c1ccc4c(c1)OCCO4)(C3)C2`: 6.31 µM; for `COc1ccc(/C=C2/CCC(CN3CCOCC3)C2=O)cc1` (stereo not drawn): 3.67 µM; for `CC1=C(SCCO)C(=O)c2ccccc2C1=O`: 2.6 µM.
For `O=C(C[C@@H]1C[C@H]2c3cc(NC(=O)Nc4ccc(C(F)(F)F)cc4)ccc3O[C@H]2[C@H](CO)O1)NCc1cc(F)ccc1F`, the AC50 was > 20 µM (inactive).
The same measure for `Cc1ccc(N2CC(C(=O)Nc3nccs3)CC2=O)cc1Cl` (stereo not drawn): 8.73 µM; for `COc1cccc(/C=N/Nc2ccc(C(=O)O)cc2)c1O`: 1.33 µM; for `CO[C@H](CN(C)Cc1cc(F)ccc1F)[C@H](C)CN(C(=O)Nc1ccc(C(F)(F)F)cc1)[C@H](C)CO`: 8.88 µM.
On to `Cc1cc(C)nc(Sc2ncnc(N)c2[N+](=O)[O-])n1`, for which the half-maximal activity concentration (AC50) was 2.63 µM.
The same measure for `O=C1NC2c3c(Cl)sc(Cl)c3C(=O)C2O1` (stereo not drawn): 7.36 µM; for `Cn1cnc(S(=O)(=O)N2C[C@@H]3N[C@H](C2)C3c2ccc(-c3ccccc3F)cc2)c1` (stereo partly drawn): 11 µM; for `C[C@@H]1CN([C@@H](C)CO)C(=O)c2cc(C#CCc3ccccc3)cnc2O[C@@H]1CN(C)C(=O)C1CCOCC1`: 7.23 µM.
The result for `CC(C)[C@H](N)C(=O)N[C@H]1CCC2C3CC=C4C[C@@H](O)CC[C@]4(C)C3CC[C@@]21C` (stereo partly drawn) reads 2.97 µM; that for `C[C@@H]1CN([C@@H](C)CO)C(=O)Cc2cc(NS(=O)(=O)c3ccc(F)cc3)ccc2O[C@H]1CN(C)Cc1ccc(C(F)(F)F)cc1`, 3.75 µM; that for `Cc1cc(OCC(=O)OCC(=O)NCc2ccco2)ccc1Cl`, 9.63 µM.
The same measure for `CC(C)[C@H](CO)Nc1nc(Nc2cccc(Cl)c2)c2ncn(C(C)C)c2n1`: 4.67 µM.
In the case of `O=C1C=CC2C3C(=O)N(c4ccccc4)C(=O)C3C1N2Cc1ccccc1` (stereo not drawn), the AC50 is 1.8 µM.
The same measure for `O=C(COC(=O)c1ccccc1)c1ccc2c(c1)OCCO2`: 0.926 µM; for `C[C@@H]1CN([C@@H](C)CO)C(=O)c2c(c3ccccc3n2C)-c2ccccc2CO[C@H]1CN(C)Cc1cccc(C(F)(F)F)c1`: 10.7 µM; for `O=C(Nc1nnc(C2CC2)s1)C1CC(=O)N(c2ccc3c(c2)OCCO3)C1` (stereo not drawn): > 20 µM (inactive).
The result for `CC(OC(=O)c1cc(Br)ccc1O)C(=O)Nc1ccc(S(=O)(=O)N2CCCC2)cc1` (stereo not drawn) reads 11 µM; that for `CC[N+]1(C)CCC(O)(c2ccc(OC)cc2)C(C(=O)c2ccc(OC)cc2)C1` (stereo not drawn), 3.75 µM; that for `C[C@@H]1CCCCO[C@@H](CN(C)Cc2ccc(Cl)c(Cl)c2)[C@H](C)CN([C@H](C)CO)C(=O)c2cc(NS(=O)(=O)c3cccs3)ccc2O1`, 7.26 µM.
The same measure for `CC(=O)NCCCC(=O)NC(CCC(=O)OCc1ccccc1)C(=O)OCc1ccccc1` (stereo not drawn): > 20 µM (inactive); for `COc1ccc(S(=O)(=O)Nc2ccc3c(c2)C(=O)N([C@@H](C)CO)C[C@H](C)[C@@H](CN(C)Cc2ccc(C(F)(F)F)cc2)OCCCC[C@@H](C)O3)cc1`: 7.3 µM.
For the molecule `c1ccc2sc(-c3ccc4c(c3)OCO4)nc2c1`, the AC50 is 8.5 µM.
With `NC(c1ccccc1)c1csc(NC(=O)Nc2cccc(C(F)(F)F)c2)n1` (stereo not drawn), the AC50 is 6.03 µM.
As for `C[C@@H]1CN([C@H](C)CO)C(=O)c2cc(NC(=O)Nc3cccc4ccccc34)ccc2O[C@@H](C)CCCCO[C@H]1CN(C)Cc1ccc(C(F)(F)F)cc1`, the half-maximal activity concentration (AC50) is 1.91 µM.
The result for `C[C@@H]1CN([C@@H](C)CO)C(=O)c2c(c3ccccc3n2C)-c2ccccc2CO[C@H]1CN(C)C(=O)Nc1cccc(C(F)(F)F)c1` reads 9.25 µM; that for `C[n+]1c2n(c3ccccc31)N=C(c1ccc(-c3ccccc3)cc1)CS2`, 1.21 µM.
The result for `COc1ccc2c3c([nH]c2c1)[C@H](CO)N(C(=O)Nc1cccc(F)c1)CC31CCN(S(=O)(=O)c2cccc(C)c2)CC1` reads > 20 µM (inactive).
On to `CC(=O)OC1CC2(O)C3CCC4CC(O)CCC4(C)C3CCC2(C)C1C1=CC(=O)OC1` (stereo not drawn), for which the AC50 is 1.12 µM.
On to `CCCNC(=O)N1[C@H](C#N)[C@H](c2ccc(C#Cc3cccc(F)c3)cc2)[C@H]1CO`, for which the AC50 is 5.57 µM.

The values above are taken from PubChem BioAssay AID1259332 (Broad Institute, 2017).
